Legend:
[1] = test system: CHO-T cells expressing an IRAP-GFP construct; assay: Insulin-induced translocation of IRAP-GFP (GLUT4 vesicles) to the plasma membrane, immunofluorescence, surface:total IRAP-GFP ratio; assay type: cell-based; settings: unpermeabilised, anti-GFP staining vs GFP fluorescence, 200 nM insulin for 30 min, inhibitor (wortmannin) treatment preceding stimulation, 20 fields of view
Description: The IRAP-GFP construct used in this example was constructed using an IRAP fragment 66-533 (from the start site to the end of the extracellular ‘stalk’ region) which was generated by PCR using specific primers from a partial cDNA IRAP clone available to the inventors. The resulting fragment was cloned into the pcDNA3 vector using the flanking restriction enzyme sites. GFP3 with a C-terminal myc-tag was also generated by PCR using specific primers and the product cloned into pcDNA3 downstream of the IRAP insert.
CHO-T cells were transfected or microinjected with the IRAP-GFP construct and 24 h later were stimulated without or with 200 nM insulin for 30 min. This was preceded by treatment with an inhibitor (e.g. wortmannin) of insulin signalling.
Subsequently cells were fixed and stained with anti-GFP antibodies (Roche) without prior permeabilisation, as described below, in order to visualise GFP exposed on the surface of the plasma membrane only. […]
The total IRAP-GFP expression level is given by the level of GFP fluorescence (and this corresponds to the second detection method of the first aspect of the invention). […]
Fluorescence intensity due to IRAP-GFP fluorescence and surface IRAP-GFP immunostaining was then computed from cells imaged in 20 fields of view for each treatment condition. Results are expressed as an average ratio of surface:total IRAP-GFP.

[2] = test system: 3T3-L1 adipocytes microinjected with the IRAP-GFP construct; assay: Insulin-induced translocation of GLUT4-containing vesicles (IRAP-GFP) to the plasma membrane in 3T3-L1 adipocytes, confocal microscopy; assay type: cell-based; settings: serum-starved 2 hours, 100 nM insulin for 30 minutes
Procedure: 3T3-L1 fibroblasts (between passages 4 and 12) were seeded onto 22 mm glass coverslips and allowed to grow to confluence. Differentiation into adipocytes was induced in DMEM containing 10% (v/v) myoclone-plus FCS, 0.25 μM dexamethasone, 0.5 mM isobutylmethylxanthine and 166 nM insulin for 2 days (day 0 to day 2). This medium was replaced with DMEM containing 10% (v/v) myoclone-plus FCS and 166 nM insulin for a further 2 days (day 2 to day 4). From day 4 onwards cells were maintained in DMEM containing 10% (v/v) myoclone-plus FCS, replacing the medium every two days. 3T3-L1 adipocytes were used between day 7 and day 10 after initiation of differentiation.
Differentiated 3T3-L1 adipocytes were microinjected with the IRAP-GFP construct used in Example 1 (pcDNA3). […]
The total level of the IRAP-GFP expression is indicated by the level of GFP fluorescence detected (this corresponds to the second detection method of the first aspect of the invention). […] The fluorescence intensity due to IRAP-GFP fluorescence and surface IRAP-GFP immunostaining was computed for each individual cell, using Leica Confocal Software, and a background fluorescence figure subtracted. For each cell, the ratio of background corrected surface:total IRAP-GFP was calculated. […] Each data point represents the red:green fluorescence ratio for one cell.

Molecule	MEAN R/G (average ratio of surface:total IRAP-GFP) [1]	translocation of IRAP-GFP to the plasma membrane (red:green ratio surface:total IRAP-GFP per cell, FIG. 4) [2]
COC[C@H]1OC(=O)c2coc3c2[C@@]1(C)C1=C(C3=O)[C@@H]2CCC(=O)[C@@]2(C)C[C@H]1OC(C)=O [Wortmannin, wortmannin, reference compound]	0.363	
insulin	1.252	a significant proportion of cell undergo translocation

From patent publication US20030104490A1, “Assay” (priority 2000, published 2003)
